± gives the standard deviation of the averaged measurements.
Columns and labels:
[1] = compound: Oc1nc(-c2ccc(C(F)(F)F)cc2)nc2c1CSCC2 [XAV-939]; experiment: surviving fraction relative to DMSO-only wells; higher = less growth inhibition; details: exposure time: 5 days
In short: (§1)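 Viability values are CellTiter-Glo luminescence readings, given as surviving fraction against the median of DMSO-only wells. The readings were taken after 10 minutes at room temperature, following five days of continuous exposure to inhibitors at 0.5, 1, 5, 10, 50, 100, 500 and 1000 nM that began 24 hours after log-phase tumour cell lines were seeded at 250–500 cells per well in 384-well plates. Every line was screened three times and kept only if replicate Pearson r >0.7 and median Z' >0.3.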

[2] = compound: Cn1nnc2c(C(N)=O)ncn2c1=O [TEMOZOLOMIDE]; experiment: as above; details: exposure time: 5 days
In short: as §1

Test System	surviving fraction ([1]; 0.5 nM)	surviving fraction ([1]; 1 nM)	surviving fraction ([1]; 5 nM)	surviving fraction ([1]; 10 nM)	surviving fraction ([1]; 50 nM)	surviving fraction ([1]; 100 nM)	surviving fraction ([1]; 500 nM)	surviving fraction ([1]; 1000 nM)	surviving fraction ([2]; 0.5 nM)	surviving fraction ([2]; 1 nM)	surviving fraction ([2]; 5 nM)	surviving fraction ([2]; 10 nM)	surviving fraction ([2]; 50 nM)	surviving fraction ([2]; 100 nM)	surviving fraction ([2]; 500 nM)	surviving fraction ([2]; 1000 nM)
22RV1 PROSTATE	1.02 ± 0.072	1.05 ± 0.11	1.03 ± 0.032	1 ± 0.065	0.934 ± 0.024	0.977 ± 0.024	1 ± 0.12	1.03 ± 0.096	0.993 ± 0.017	1.09 ± 0.05	1.03 ± 0.029	1.08 ± 0.015	1.04 ± 0.057	1.13 ± 0.096	1.11 ± 0.048	1.09 ± 0.069
93VU HEADNECK	0.98 ± 0.073	1.06 ± 0.071	1.11 ± 0.091	1.07 ± 0.077	1.15 ± 0.095	1.17 ± 0.066	1.05 ± 0.089	0.907 ± 0.035	1.02 ± 0.1	1.04 ± 0.015	1.09 ± 0.057	1.03 ± 0.14	1.11 ± 0.022	1.17 ± 0.12	1 ± 0.11	1.02 ± 0.081
143B BONE	0.977 ± 0.026	1.02 ± 0.012	0.952 ± 0.14	1.02 ± 0.042	0.911 ± 0.15	1.03 ± 0.044	0.922 ± 0.069	1.02 ± 0.023	0.914 ± 0.096	1.0035 ± 0.00071	0.961 ± 0.047	1 ± 0.033	1.01 ± 0.013	1.02 ± 0.023	0.965 ± 0.03	1.04 ± 0.019
A549 LUNG	0.967 ± 0.022	0.985 ± 0.053	1.01 ± 0.035	1.02 ± 0.087	1.07 ± 0.022	1.12 ± 0.013	1.084 ± 0.0087	1.14 ± 0.022	1.03 ± 0.0082	1.03 ± 0.04	1.03 ± 0.037	1.06 ± 0.013	1.03 ± 0.024	1.04 ± 0.032	1.04 ± 0.044	1.06 ± 0.047
ASKA SYNOVIAL	1.15 ± 0.11	1.17 ± 0.098	1.18 ± 0.028	1.23 ± 0.13	1.2 ± 0.073	1.14 ± 0.065	0.98 ± 0.068	0.984 ± 0.023	1.03 ± 0.078	1.03 ± 0.066	1.12 ± 0.044	1.22 ± 0.12	1.14 ± 0.082	1.24 ± 0.02	1.15 ± 0.055	1.2 ± 0.058
BT20 BREAST	1.08 ± 0.19	1.06 ± 0.043	1.05 ± 0.079	1.05 ± 0.051	1.08 ± 0.14	1.14 ± 0.05	1.26 ± 0.057	1.23 ± 0.1	1.05 ± 0.097	1.07 ± 0.15	1.04 ± 0.085	1.13 ± 0.11	1.01 ± 0.053	1.08 ± 0.081	1.03 ± 0.053	1.15 ± 0.052
BT549 BREAST	1.16 ± 0.085	1.19 ± 0.079	1.03 ± 0.077	1.16 ± 0.082	1.18 ± 0.044	1.08 ± 0.091	0.884 ± 0.014	0.872 ± 0.091	1.1 ± 0.12	1.08 ± 0.085	1.05 ± 0.1	1.12 ± 0.13	1.09 ± 0.043	1.26 ± 0.1	1.09 ± 0.07	1.19 ± 0.14
C33A CERVIX	0.909 ± 0.039	0.973 ± 0.1	0.981 ± 0.032	1.03 ± 0.068	0.913 ± 0.068	0.901 ± 0.048	0.835 ± 0.062	0.755 ± 0.04	0.944 ± 0.13	0.901 ± 0.11	1.02 ± 0.056	0.929 ± 0.088	0.944 ± 0.047	1.05 ± 0.061	0.924 ± 0.012	0.984 ± 0.068
CADOES1 SOFT TISSUE	0.957 ± 0.1	0.993 ± 0.092	0.816 ± 0.0092	0.903 ± 0.049	0.857 ± 0.13	0.899 ± 0.094	0.922 ± 0.076	0.913 ± 0.091	0.965 ± 0.14	0.979 ± 0.071	0.907 ± 0.07	0.877 ± 0.032	0.956 ± 0.068	0.937 ± 0.04	0.968 ± 0.096	0.969 ± 0.12
CAL51 BREAST	0.967 ± 0.032	1.03 ± 0.046	1.02 ± 0.025	0.992 ± 0.017	1.01 ± 0.049	1.01 ± 0.023	0.846 ± 0.033	0.799 ± 0.089	0.973 ± 0.038	1.05 ± 0.037	0.993 ± 0.02	1.07 ± 0.048	1.05 ± 0.057	1.06 ± 0.048	1.04 ± 0.032	1.02 ± 0.037
CAL72 BONE	1.07 ± 0.023	1.05 ± 0.013	0.999 ± 0.015	0.976 ± 0.023	0.944 ± 0.012	0.957 ± 0.029	0.916 ± 0.038	0.9 ± 0.025	1.04 ± 0.056	0.996 ± 0.098	1.04 ± 0.083	1.02 ± 0.081	1.1 ± 0.05	1.09 ± 0.087	1.076 ± 0.0011	1.07 ± 0.094
CAL120 BREAST	0.984 ± 0.027	1.02 ± 0.013	1.01 ± 0.019	0.969 ± 0.018	1.01 ± 0.021	1.011 ± 0.0096	0.951 ± 0.012	0.9582 ± 0.0029	0.948 ± 0.059	0.963 ± 0.033	0.99 ± 0.048	0.96 ± 0.075	0.976 ± 0.075	0.988 ± 0.016	0.988 ± 0.053	0.989 ± 0.025
CASKI CERVIX	0.918 ± 0.017	0.944 ± 0.037	0.975 ± 0.011	0.997 ± 0.013	1.03 ± 0.028	1.06 ± 0.03	0.935 ± 0.037	0.965 ± 0.051	0.888 ± 0.013	0.88 ± 0.049	0.965 ± 0.044	1.01 ± 0.12	1 ± 0.023	1.04 ± 0.05	0.929 ± 0.072	1 ± 0.074
CHLA90 AUTONOMIC GANGLIA	1.01 ± 0.071	1.04 ± 0.051	0.989 ± 0.031	0.997 ± 0.045	0.975 ± 0.019	0.948 ± 0.067	0.987 ± 0.072	0.933 ± 0.022	0.928 ± 0.039	0.975 ± 0.047	0.941 ± 0.053	0.96 ± 0.023	0.963 ± 0.068	1.03 ± 0.055	1.02 ± 0.087	1.03 ± 0.098
CME SYNOVIAL	1.27 ± 0.24	1.2 ± 0.093	1.25 ± 0.16	1.3 ± 0.093	1.29 ± 0.14	1.3 ± 0.071	1.1 ± 0.03	0.952 ± 0.094	1.31 ± 0.12	1.21 ± 0.12	1.24 ± 0.033	1.33 ± 0.18	1.34 ± 0.12	1.46 ± 0.064	1.34 ± 0.027	1.39 ± 0.065
COLO320DM LARGE INTESTINE	1.1 ± 0.051	1.14 ± 0.069	1.08 ± 0.15	0.997 ± 0.11	1.08 ± 0.013	0.994 ± 0.075	0.827 ± 0.071	0.805 ± 0.088	1.21 ± 0.13	1.1 ± 0.036	1.13 ± 0.055	1.17 ± 0.12	1.1 ± 0.035	1.142 ± 0.011	1.15 ± 0.014	1.06 ± 0.047
DU4475 BREAST	1.02 ± 0.28	0.857 ± 0.17	0.884 ± 0.18	1.05 ± 0.12	1.07 ± 0.17	1.16 ± 0.18	1.15 ± 0.33	1.1 ± 0.25	0.877 ± 0.091	0.998 ± 0.053	0.973 ± 0.19	0.878 ± 0.093	0.851 ± 0.08	1.01 ± 0.2	0.972 ± 0.24	0.989 ± 0.067
H23 LUNG	0.953 ± 0.035	1.03 ± 0.062	1.04 ± 0.071	1.08 ± 0.075	1.01 ± 0.037	0.992 ± 0.02	0.391 ± 0.041	0.318 ± 0.024	0.987 ± 0.04	1.01 ± 0.031	1.01 ± 0.053	1.06 ± 0.044	0.997 ± 0.025	1.01 ± 0.022	0.966 ± 0.066	1.02 ± 0.051
HCC78 LUNG	0.9 ± 0.1	0.925 ± 0.12	1.09 ± 0.18	0.991 ± 0.13	0.983 ± 0.082	0.822 ± 0.16	0.286 ± 0.062	0.358 ± 0.08	0.804 ± 0.046	0.791 ± 0.14	0.941 ± 0.062	1.02 ± 0.069	0.984 ± 0.11	0.916 ± 0.14	0.907 ± 0.058	0.785 ± 0.18
HCC202 BREAST	1.4 ± 0.094	1.23 ± 0.2	1.17 ± 0.094	0.972 ± 0.14	1.12 ± 0.18	0.905 ± 0.077	1.04 ± 0.2	0.953 ± 0.065	1.08 ± 0.35	1 ± 0.13	1.07 ± 0.32	0.9 ± 0.071	1.01 ± 0.17	1.29 ± 0.14	0.975 ± 0.035	1.254 ± 0.011

— the supplement of paper PMC6045584
